Common to all, as to type: in vivo
Assay [1] relates to Lanyu mini-pig models of experimental myocardial infarction (MI). Put plainly: Cardiac catheterization (hemodynamic parameters) after coronary artery ligation in mini-pigs. How it is done: (§1) Sexually matured Lanyu mini-pigs (about 5 months old, body weight: 21.8±3.1 kg), were divided into 3 groups: the first group is sham operation, suturing was performed without ligation (n=4); the second group is mid-left coronary artery ligation (for simulating myocardial infarction, MI) immediately followed with injection of normal saline solution (MI+NS, n=4); and the third group is mid-left coronary artery ligation immediately followed with injection of 1% peptide nanofibers solution (MI+NFs, n=5) in the entire infarcted area with a total of 2 ml NFs divided by 40 delivery sites (50 ul for each site), wherein the sequence of peptide NFs is AcN-RARADADARARADADA-NH2. Cardiac functions were assessed by echocardiography immediately after MI and together with cardiac catheterization 4 weeks later.
(§2) In the preferred embodiment of the present invention, the peptide nanofibers solution contains peptide nanofibers which can form a biologically compatible peptide hydrogel, wherein the biologically compatible peptide hydrogel is prepared by: dissolving powders of the self-assembling peptide nanofibers in a buffer solution, such as pH 7.4 phosphate buffered saline (PBS) solution; and mixing the powders of the self-assembling peptide nanofibers with the buffer solution by sonication (100 W, 10 mins), so as to obtain a hydrogel solution of the biologically compatible peptide hydrogel (i.e. the peptide nanofibers solution), wherein the percentage of the self-assembling peptide nanofibers in the solution can be 0.1-10% by weight of the solution, preferably 0.5-5% by weight, and more preferably 1.0% by weight; and wherein the volume of the solution of the biologically compatible peptide hydrogel is preferably 0.1-10 ml, and more preferably 2 ml. In the embodiment, the percentage of the self-assembling peptide nanofibers in the solution is 1.0% by weight, and the volume of the solution of the biologically compatible peptide hydrogel is 2 ml. Meanwhile, the buffer solution (PBS) is added with monovalent metal cation compound of a concentration sufficient to promote the self-assembly of the self-assembling peptide nanofibers, wherein the monovalent metal cation is selected from the group consisting of: lithium (Li^+), sodium (Na^+) and potassium (K^+). In the embodiment, the monovalent metal cation compound is sodium […].
(§3) Besides, the pharmaceutical composition of the second and third groups is injected to a plurality of delivery sites in the entire infarcted area of myocardium tissue, respectively, wherein the number of the delivery sites is preferably ranged between 10 and 100, and more preferably 40, without limitation thereto. The plurality of delivery sites in the entire infarcted area is advantageous to increase the distribution density to support materials (e.g. peptide nanofibers). In addition, the infarcted area of myocardium tissue is preferably a mid-left portion of myocardium tissue of an injured heart with myocardial infarction, but also can be any infarcted area of the heart. The self-assembling peptide nanofibers (AcN-RARADADARARADADA-NH2) are 16 amino acids in length, but also can be 8-200 amino acids in length, and preferably 12-32 amino acids in length. […]

The test system is the same in assay [2]. Put plainly: Immunohistological index (myocardial capillary density) after coronary artery ligation in mini-pigs. As for the experimental part:
as §1, with “later. […]” for “later.”

The test system is the same in assay [3]. Put plainly: Echocardiography after coronary artery ligation in mini-pigs. As for the experimental part: as §1, §2, §3
Where [4] appears, read: Table 1, 28 days after infarction, 2 ml intramyocardial in 40 sites, in mmHg/s (unit assumed).
Setting [5] is: Table 1, 28 days after infarction, 2 ml intramyocardial in 40 sites.
The mark [6] stands for this setting: one month after MI, P<0.01 vs MI+NS.

The values below come from patent US20110117195A1, “METHOD FOR IMPROVING MYOCARDIAL INFARCTION BY INTRAMYOCARDIAL OR TRANSENDOCARDIAL INJECTION OF PEPTIDE NANOFIBERS” (National Cheng Kung University, priority 2009, published 2011).

Turning to “AcN-RARADADARARADADA-NH2 (Ac-RARADADARARADADA-NH2) [MI + NFs, self-assembling peptide nanofibers forming a hydrogel]”, the “Emax (maximal chamber elasticity)” value in assay [1] (Table 1, 28 days after infarction, 2 ml intramyocardial in 40 sites, in mmHg/mL (unit assumed)) is 2.80 ± 1.43. In assay [1] (setting [4]), the “+dP/dt Max” value worked out at 1458 ± 154 and the “−dP/dt Max” value is on record as −1850 ± 94. Moreover, the “diastolic function and ventricular remodeling” value in assay [1] (one month after MI, end-diastolic and end-systolic volumes, −dP/dt Max, Emax) is listed as “significantly improved”. The “systolic function (ejection fraction and +dP/dt Max) compared to the (MI+NS) group” value in assay [1] (one month after MI, no significant difference) is on record as “only modest improvement”. In addition, in assay [2] (setting [5]), the “M.C.D. (myocardial capillary density)” value was 286 ± 179 number/mm^2. The “myocardial capillary density (M.C.D.)” value in assay [2] (one month after MI, in words) was “significantly increased”. In assay [3] (setting [5]), the “E.F. (ejection fraction)” value turned out to be 47 ± 8; the IVS-D (thickness of inter-ventricular septum, diastolic) turned out to be 0.6 ± 0.12 cm; the IVS-S (thickness of inter-ventricular septum, systolic) came out at 0.7 ± 0.13 cm. In assay [3] (setting [6]), this substance yielded a thickness of inter-ventricular septum on diastolic (IVS-D) phase of 0.6 ± 0.12 cm and a thickness of inter-ventricular septum on systolic (IVS-S) phase of 0.7 ± 0.13 cm.
